Experimental data as given in article PMC10510387, “Targeting Cytotoxic Agents through EGFR-Mediated Covalent Binding and Release” (Journal of Medicinal Chemistry, 2023).
Entries after “also recorded” stand apart in the source; their conditions may differ. Where two headings read alike, the source gives them in different places.

Tests used:
A431 cells = test: Growth inhibition in adherent cell lines (SRB, 72 h); format: cell-based; conditions: for GI50: Homo sapiens, A-431, 72 h
Experimental: On day 1, the compounds were diluted to the required concentration in DMEM +10% FBS media, ensuring that the final DMSO concentration was 0.1% once added to cells. […] Cells were then fixed by adding 50% (wt/vol) TCA to each well of the plate and left at 4 °C for 1 h. The plates were then washed thoroughly with water, 100 μL of 0.4% SRB solution was added to the wells, and left at room temperature for 30 min. The plates were rinsed with 1% AcOH and then left to air-dry in a drying cabinet for 1 h. […] The absorbance was read at 570 nm using a FluoStar Omega plate reader.

[1] = test system: pEGFR (Tyr1068) in A431 cells; test: Cellular pEGFR inhibition by HTRF (A431); format: cell-based; conditions: for IC50: Homo sapiens, A-431, Figure 5a, read-out: pEGFR pIC50 (converted); for pEGFR pIC50: Figure 5a
Experimental: Cells were plated at 20 000 cells per well in 96-well plates and placed at 37 °C with 5% CO2. […] Compound and media were removed from the cells, and then 50 μL of HTRF lysis buffer was added (lysis buffer was diluted from 4× stock to 1× in deionized (DI) water, with 1% blocking agent also added). Cells were lysed on a plate shaker (2000 rpm) for 30 min at room temperature. pEGFR expression was monitored using the Cisbio Phospho-EGFR (Tyr1068) cellular kit (64EG1PEH). Total EGFR expression was monitored using the Cisbio Total EGFR cellular kit (64NG1PEH) as per the manufacturer’s instructions. […] Results were calculated as the ratio of pEGFR/total EGFR and then the percentage of 0 μM control.

WT EGFR [2] = biological target: T1, WT EGFR (Homo sapiens, UniProt P00533); test: In vitro TR-FRET assay, WT EGFR; format: binding; conditions: for WT EGFR pIC50: Table S1, TR FRET, n=1, 2 technical replicates
DM EGFR = test: In vitro TR-FRET assay, DM EGFR; format: binding
WT EGFR [3] = biological target: T1, WT EGFR; test: Protein mass spectrometry after incubation of compound with EGFR; format: binding; conditions: for adduct formation with EGFR / release of 5FU from EGFR adduct: 15 μM compound, 4 μM EGFR, 4 hr; for adduct formation with EGFR: ambient temperature; for release of 5FU from EGFR adduct: protein mass spectrometry; for mass increase of adduct after loss of 5FU / mass increase of initial (intact) adduct: relative to apo protein
Experimental: Compounds were suspended in 10 mM in 100% DMSO and were added to 4 μM of EGFR to achieve the final compound concentration of 15 μM in 1% DMSO, in 25 mM Tris pH 8, 150 mM NaCl, 5% Glycerol before incubating at an ambient temperature for 4 hr time prior to analysis.
Following incubation, intact protein masses were determined using an Agilent 6530 Accurate Mass dual AJS/ESI Q-TOF instrument coupled to an Agilent 1260 Infinity II LC system. 1 μL of purified protein (∼1 mg/mL) was injected onto an MS Pac DS-10 Desalter cartridge ((Thermo Fisher Scientific), PN: 089170, 2.1 × 10 mm) for desalting and reversed phase separation at 70 °C. The mobile phase was 0.1% (v/v) formic acid in LC-MS grade water (A) and LC-MS grade acetonitrile (B) with separation performed over 7.5 min. […] Proteins were detected in positive ion mode using electrospray ionization with a nebulizer pressure of 45 psig, a drying gas flow of 5 L/min, and a source gas temperature of 325 °C. A sheath gas temperature of 400 °C, a gas flow of 11 L/min, a capillary voltage of 3500 V, and a nozzle voltage of 2000 V were also used. Mass spectra were acquired using MassHunter Acquisition software (version B.08.00) over a mass range of 100–3000 m/z at a rate of 1 spectra/s and 1000 ms/spectrum in the standard mass range (3200 m/z) at 2 GHz. The instrument had been calibrated over the selected mass range prior to analysis.

[4] = Compound media stability (LC-MS); format: physicochemical; conditions: DMEM + 10% FCS, 1.0 μM, 25 h
Experimental: Compound 53 (0.760 mg, 1.51 μmol) was dissolved in DMSO […] and then added to DMEM (Sigma-Aldrich 5796) + 10% FCS media (1.50 mL) such that the final concentration was 1.0 μM. Liquid chromatography-mass spectrometry (LC-MS) analysis was carried out at t = 0, 1, 3, and 25 h.

[5] = 19F NMR 5FU release study with N-acetyl-L-cysteine methyl ester; format: physicochemical; conditions: reaction with N-acetyl cysteine
Experimental: Reaction of the model systems with N-acetyl-L-cysteine methyl ester was assessed by ^19F NMR.
Acrylate-5FU conjugate (0.125 M) in d^6-DMSO (0.25 mL) was prepared in an NMR tube. N-Acetyl cysteine methyl ester (1.9 mg, 0.011 mmol) or glutathione (3.4 mg, 0.011 mmol) in d^6-DMSO was prepared. The cysteine/glutathione solution was added to the NMR tube, and the tube was inverted several times. The ^19F NMR was taken immediately for t = 0 measurement. Further measurements were taken at t = 30 min and t = 60 min.

[6] = test system: EGFR phosphorylation in A431 cells; test: pEGFR inhibition by Western blot in A431; format: cell-based; conditions: 4 h
Experimental: Appropriately treated cells were lysed in Phosphosafe extraction buffer combined with cOmplete Protease Inhibitor Cocktail (Merck) prepared as per the manufacturer’s instructions.
Samples were prepared in Eppendorf vials by diluting them to the required concentrations with phosphate-buffered saline (PBS), and the appropriate amount of 4X XT sample buffer was added. This solution was vortexed, centrifuged, then placed at 98 °C for 5 min, and then centrifuged to remove the residue. Migration was performed using a 4–20% Criterion TGX Precast Midi Protein Gel, 18 well, 30 μL (Cat. No. 5671094) placed in a Criterion running tank (Cat. No. 1656001) and also using PowerPac HC high-current power supply (Bio-Rad) electrodes. Nitrocellulose membrane used was an Amersham Protran Premium 0.45 Nitrocellulose membrane (Cat. No. 15269794) and Ponceau S Stain (Sigma-Aldrich Cat. No. p7170).
Primary antibodies raised to EGFR (CST 4267) or pEGFR (CST 3777) were diluted (1:1000) in 5% BSA w/v. Loading control antibodies were prepared in 5% milk w/v with 1 × TBS/T (0.1 v/v) solution at a determined optimum concentration.
Secondary HRP-conjugated antibodies were diluted in 5% milk with w/v in 1 × TBS/T (0.1 v/v) solution at a determined optimum concentration.
Proteins were detected using the Clarity ECL Western blotting substrate (Bio-Rad).

[7] = A431 cell viability, 72 h, Figure 5c
[8] = Table S1, TR FRET, n=1, 2 technical replicates
[9] = A431 cell viability, 72 h, Figure 6b, single agents and equimolar combination
[10] = WT EGFR, TR-FRET, n > 2, Figure 5a and text

COc1cc2ncnc(Nc3ccc(F)c(Cl)c3)c2cc1NC(=O)/C=C/CN1CCCCC1 [compound 2, dacomitinib, reference compound]
GI50 (A431 cells; [7]): 0.0794 µM
IC50 [1]: 0.01 µM

2-Fluoro-4-methoxy-5-((4-(1-methyl-1H-indol-3-yl)pyrimidin-2-yl)amino)phenyl (E)-3-(5-fluoro-2,4-dioxo-3,4-dihydropyrimidin-1(2H)-yl)acrylate [compound 35]
WT EGFR pIC50 (WT EGFR [2]): < 4.0
DM EGFR pIC50 (DM EGFR; [8]): 5.5
adduct formation with EGFR (WT EGFR [3]): evidence of adduct formation
release of 5FU from EGFR adduct (WT EGFR [3]): without evidence of the release of 5FU

3-((4-(1-Methyl-1H-indol-3-yl)pyrimidin-2-yl)amino)-4-nitrophenyl (E)-3-(5-Fluoro-2,4-dioxo-3,4-dihydropyrimidin-1(2H)-yl)acrylate [compound 39]
WT EGFR pIC50 (WT EGFR [2]): < 4.0
DM EGFR pIC50 (DM EGFR; [8]): 3.7
adduct formation with EGFR (WT EGFR [3]): evidence of adduct formation
release of 5FU from EGFR adduct (WT EGFR [3]): without evidence of the release of 5FU

O=c1[nH]cc(F)c(=O)[nH]1 [5-FU, 5-fluorouracil, reference compound]
GI50 (A431 cells; A431 cell viability, 72 h, Figure 6a, single agents and equimolar combination): 0.631 µM
GI50 (A431 cells; [9]): 0.631 µM

(E)-1-(3-(3-((4-((3-Chloro-4-fluorophenyl)amino)-7-methoxyquinazolin-6-yl)oxy)azetidin-1-yl)-3-oxoprop-1-en-1-yl)-5-fluoropyrimidine-2,4(1H,3H)-dione [compound 48]
WT EGFR pIC50 (WT EGFR [2]): 6.6
DM EGFR pIC50 (DM EGFR; [8]): 6.7
adduct formation with EGFR (WT EGFR [3]): covalent adduct formation
release of 5FU from EGFR adduct (WT EGFR [3]): without evidence of the release of 5FU

4-((3-Chloro-4-fluorophenyl)amino)-7-methoxyquinazolin-6-yl (E)-3-(5-fluoro-2,4-dioxo-3,4-dihydropyrimidin-1(2H)-yl)acrylate [compound 53]
hydrolysis in cell media [4]: some hydrolysis did occur
release of 5FU in cell media [4]: no observation of the release of 5FU
EGFR pIC50 (WT EGFR [2]; [10]): 6.8
pGI50 (A431 cells; [7]): 5.3
adduct formation with EGFR (WT EGFR [3]): two new major adducts
release of 5FU from EGFR adduct (WT EGFR [3]): loss of 5FU from the complex
mass increase of adduct after loss of 5FU (WT EGFR [3]): 372 Da
mass increase of initial (intact) adduct (WT EGFR [3]): 502 Da
time to complete release of 5FU [5]: 1 h
inhibition of EGFR phosphorylation at 1 μM [6]: not at 1 μM
inhibition of EGFR phosphorylation at 10 μM [6]: marked inhibition
pEGFR pIC50 [1]: 7.8

(E)-N-(4-((3-Chloro-4-fluorophenyl)amino)-7-methoxyquinazolin-6-yl)-3-(5-fluoro-2,4-dioxo-3,4-dihydropyrimidin-1(2H)-yl)acrylamide [compound 57]
EGFR pIC50 (WT EGFR [2]; [10]): 7.3
antiproliferative effect (A431 cells; A431, 72 h growth inhibition): no antiproliferative effects
pGI50 (A431 cells; supplementary CSV column): <5.0
adduct formation with EGFR (WT EGFR [3]): clear adduct
release of 5FU from EGFR adduct (WT EGFR [3]): negligible release of 5FU
mass increase of adduct after loss of 5FU (WT EGFR [3]): 371 Da
mass increase of initial (intact) adduct (WT EGFR [3]): 501 Da
inhibition of EGFR phosphorylation at 10 μM [6]: little inhibition
pEGFR pIC50 [1]: 5.6

COc1cc2ncnc(Nc3ccc(F)c(Cl)c3)c2cc1OC(=O)/C=C/CN1CCCCC1 [compound 56, 4-((3-Chloro-4-fluorophenyl)amino)-7-methoxyquinazolin-6-yl (E)-4-(piperidin-1-yl)but-2-enoate]
EGFR pIC50 (WT EGFR [2]; supplementary CSV column): 8.1 +/- 0.82
GI50 (A431 cells; [7]): > 10 µM
GI50 (A431 cells; [9]): 10 µM
inhibition of EGFR phosphorylation at 1 μM [6]: some inhibition
IC50 [1]: 5.01 µM

(R, E)-1-(3-(3-((4-((3-Chloro-4-fluorophenyl)amino)-7-methoxyquinazolin-6-yl)oxy)pyrrolidin-1-yl)-3-oxoprop-1-en-1-yl)-5-fluoropyrimidine-2,4(1H,3H)-dione [compound 49]
WT EGFR pIC50 (WT EGFR [2]): 5.6
DM EGFR pIC50 (DM EGFR; [8]): 6.4

(E)-1-(3-(4-((4-((3-Chloro-4-fluorophenyl)amino)-7-methoxyquinazolin-6-yl)oxy)piperidin-1-yl)-3-oxoprop-1-en-1-yl)-5-fluoropyrimidine-2,4(1H,3H)-dione [compound 51]
WT EGFR pIC50 (WT EGFR [2]): 6.6

(S, E)-1-(3-(3-((4-((3-Chloro-4-fluorophenyl)amino)-7-methoxyquinazolin-6-yl)oxy)pyrrolidin-1-yl)-3-oxoprop-1-en-1-yl)-5-fluoropyrimidine-2,4(1H,3H)-dione [compound 50]
WT EGFR pIC50 (WT EGFR [2]): 5.9
DM EGFR pIC50 (DM EGFR; [8]): 6.6

(E)-N-(3-((5-Chloro-4-(pyrazolo[1,5-a]pyridin-3-yl)pyrimidin-2-yl)amino)-4-methoxyphenyl)-3-(5-fluoro-2,4-dioxo-3,4-dihydropyrimidin-1(2H)-yl)acrylamide [compound 30]
WT EGFR pIC50 (WT EGFR [2]): 5.7
DM EGFR pIC50 (DM EGFR): 6.8
adduct formation with EGFR (WT EGFR [3]): an adduct formed
release of 5FU from EGFR adduct (WT EGFR [3]): without 5FU release; also recorded: no evidence of the release of 5FU
mass increase of initial (intact) adduct (WT EGFR [3]): 548 Da
